# According to US8835470B2, “Mandelamide heterocyclic compounds” (Bristol-Myers Squibb Company, priority 2010, dated 2014):
# Structures can show the parent of a compound that is named as a salt.
# Experiments:
# circulating lymphocytes = assay: Blood Lymphocyte Reduction Assay (BLR) in Rodents; format: in vivo; conditions: Rattus norvegicus, Lewis rats, oral, 4 hr, vs vehicle group
# Protocol: Blood Lymphocyte Reduction Assay (BLR) in Rodents
# Lewis rats were dosed orally with test article (as a solution or suspension in the vehicle) or vehicle alone (polyethylene glycol 300, “PEG300”). Blood was drawn at 4 hr by retro-orbital bleeding. Blood lymphocyte counts were determined on an ADVIA® 120 Hematology Analyzer (Siemens Healthcare Diagnostics). The results were measured as a reduction in the percentage of circulating lymphocytes as compared to the vehicle treated group at the 4 hr measurement. The results represent the average results of all animals within each treatment group (n=3-4).
# The following examples were tested in the Blood Lymphocyte Reduction assay (BLR) described hereinabove and the results are shown in Table D for rats.
# S1P1 [1] = target: T1, S1P1 (Homo sapiens (Human), UniProt P21453); assay: S1P1 Binding Assay; conditions: membranes from CHO cells expressing human S1P1; 33P-S1P ligand; rounded to two digits
# T1 sequence (P21453 whole entry): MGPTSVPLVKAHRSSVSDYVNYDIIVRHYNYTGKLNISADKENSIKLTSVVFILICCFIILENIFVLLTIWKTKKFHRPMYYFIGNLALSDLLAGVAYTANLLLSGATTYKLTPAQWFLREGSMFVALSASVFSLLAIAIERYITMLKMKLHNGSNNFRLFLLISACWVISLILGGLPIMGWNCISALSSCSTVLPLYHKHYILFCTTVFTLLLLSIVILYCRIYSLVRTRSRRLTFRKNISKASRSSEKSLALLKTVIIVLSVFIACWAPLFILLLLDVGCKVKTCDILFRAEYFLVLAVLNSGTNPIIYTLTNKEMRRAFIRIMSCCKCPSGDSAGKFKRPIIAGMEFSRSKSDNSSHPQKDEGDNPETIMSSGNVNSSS
# Protocol: Membranes were prepared from CHO cells expressing human S1P1. Cells were dissociated in buffer containing 20 mM HEPES, pH 7.5, 50 mM NaCl, 2 mM EDTA and Protease Inhibitor cocktail (Roche), and disrupted on ice using the Polytron homogenizer. The homogenate was centrifuged at 20,000 rpm (48,000 G) and the supernatant was discarded. The membrane pellets were resuspended in buffer containing 50 mM HEPES, pH 7.5, 100 mM NaCl, 1 mM MgCl2, 2 mM EDTA and stored in aliquots at −80° C. after protein concentration determination. Membranes (2 μg/well) and 0.03 nM final concentration of ^33P-S1P ligand (1 mCi/ml, American Radiolabeled Chemicals) were added to the compound plates. Binding was performed for 45 minutes at room temperature, terminated by collecting the membranes onto GF/B filter plates, and radioactivity was measured by TOPCOUNT®. The competition data of the test compounds over a range of concentrations was plotted as percentage inhibition of radioligand specific binding. The IC50 is defined as the concentration of competing ligand needed to reduce specific binding by 50%.
# The results in Table A were rounded to two digits.
# S1P1 [2] = target: T1, S1P1; assay: Receptor [35S] GTPγS Binding Assay, S1P1; format: biochemical; conditions: for EC50: membranes from S1P1/CHO cells, [35S]GTP; for GTPγS S1P3/S1P1: ratio of GTPγS S1P3 EC50 to GTPγS S1P1 EC50, * and ** S1P3 value at detection limit
# Protocol: (§1) Receptor [35S] GTPγS Binding Assays
# (§2) Membranes prepared from S1P1/CHO cells or EDG3-Ga15-bla HEK293T cells were added to the compound plate (40 μl/well, final protein 3 μg/well) with MULTIDROP®. [^35S]GTP (1250 Ci/mmol, Perkin Elmer) was diluted in assay buffer: 20 mM HEPES, pH7.5, 10 mM MgCl2, 150 mM NaCl, 1 mM EGTA, 1 mM DTT, 10 μM GDP, 0.1% fatty acid free BSA, and 10 μg/ml Saponin to 0.4 nM. 40 μl of the [^35S] GTP solution was added to the compound plate with a final concentration of 0.2 nM. The reaction was kept at room temperature for 45 min. At the end of incubation, all the mixtures in the compound plate were transferred to a 384 well FB filter plates via GPCR robot system. The filter plate was washed with water 4 times by using the modified manifold Embla plate washer and dried at 60° C. for 45 min. 30 μl of MicroScint 20 scintillation fluid was added to each well for counting at Packard TOPCOUNT®.
# A larger value for the GTPγS S1P3 EC50 value indicated less activity in the GTPγS S1P3 binding assay.
# S1P3 = S1P3 (Homo sapiens (Human), UniProt Q99500); assay: Receptor [35S] GTPγS Binding Assay, S1P3; format: biochemical; conditions: membranes from EDG3-Ga15-bla HEK293T cells; * detection limit 62,500 nM, ** detection limit 32,500 nM
# Chain of S1P3 (Q99500 whole entry): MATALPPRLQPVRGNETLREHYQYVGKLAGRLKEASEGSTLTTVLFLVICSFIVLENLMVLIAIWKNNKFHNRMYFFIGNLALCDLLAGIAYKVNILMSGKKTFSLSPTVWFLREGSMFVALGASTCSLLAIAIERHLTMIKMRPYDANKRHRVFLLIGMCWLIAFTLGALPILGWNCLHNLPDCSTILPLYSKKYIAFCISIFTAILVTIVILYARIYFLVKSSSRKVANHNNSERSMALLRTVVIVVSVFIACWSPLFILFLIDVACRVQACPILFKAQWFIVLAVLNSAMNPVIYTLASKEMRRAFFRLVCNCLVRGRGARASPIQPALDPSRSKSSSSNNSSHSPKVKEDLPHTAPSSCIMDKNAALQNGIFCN
# Protocol: as §1
# as §2, with “Compounds were loaded in a 384 FALCON® v-bottom plate (0.5 μl/well in a 3-fold dilution). Membranes” for “Membranes”, “TOPCOUNT®. EC50 is defined as the agonist concentration that corresponds to 50% of the Ymax (maximal response) obtained for each individual compound tested.” for “TOPCOUNT®.”
# A smaller value for GTPγS S1P1 EC50 value indicated greater activity for the compound in the GTPγS S1P1 binding assay. A larger value for the GTPγS S1P3 EC50 value indicated less activity in the GTPγS S1P3 binding assay.
IC50 (S1P1 [1]) [nM],EC50 (S1P1 [2]) [nM],GTPγS S1P3/S1P1 (S1P1 [2]),EC50 (S1P3) [µM],SMILES,inhibition in vivo at 1 mg/kg (circulating lymphocytes) [%],inhibition in vivo at 3 mg/kg (circulating lymphocytes) [%]
,,,,"C[C@@H](C#N)NC(=O)C(O)c1ccc(-c2noc(-c3onc(-c4ccccc4)c3C(F)(F)F)n2)cc1 (stereo partly drawn) [Example 40, N-((S)-1-Cyanoethyl)-2-hydroxy-2-(4-(5-(3-phenyl-4-(trifluoromethyl)isoxazol-5-yl)-1,2,4-oxadiazol-3-yl)phenyl)acetamide]",80,
6.7,6.7,1031,6.91,"O=C(NCc1ncc[nH]1)C(O)c1ccc(-c2noc(-c3onc(-c4ccccc4)c3C(F)(F)F)n2)cc1 (single isomer, unassigned) [Example 17, N-((1H-Imidazol-2-yl)methyl)-2-hydroxy-2-(4-(5-(3-phenyl-4-(trifluoromethyl)isoxazol-5-yl)-1,2,4-oxadiazol-3-yl)phenyl)acetamide-TFA]",,69
0.46,0.67,4679,3.13,"CC(C)(O)CNC(=O)CCNC(=O)C(O)c1ccc(-c2noc(-c3onc(-c4ccccc4)c3C(F)(F)F)n2)cc1 (single isomer, unassigned) [Example 6, 3-(2-Hydroxy-2-(4-(5-(3-phenyl-4-(trifluoromethyl)isoxazol-5-yl)-1,2,4-oxadiazol-3-yl)phenyl)acetamido)-N-(2-hydroxy-2-methylpropyl)propanamide]",,73
4.5,11.9,802,9.54,"O=C(NC1CCS(=O)(=O)C1)C(O)c1ccc(-c2noc(-c3onc(-c4ccccc4)c3C(F)(F)F)n2)cc1 (stereo not shown) [Example 31, 2-Hydroxy-2-(4-(5-(3-phenyl-4-(trifluoromethyl)isoxazol-5-yl)-1,2,4-oxadiazol-3-yl)phenyl)-N-(3,3-dioxide-tetrahydrothiophen-3-yl)acetamide]",54,
2.9,5.8,2060,12,"O=C(NCCC(=O)N1CC(O)C1)C(O)c1ccc(-c2noc(-c3onc(-c4ccccc4)c3C(F)(F)F)n2)cc1 (racemic) [Example 93, (R/S)-2-Hydroxy-N-(3-(3-hydroxyazetidin-1-yl)-3-oxopropyl)-2-(4-(5-(3-phenyl-4-(trifluoromethyl)isoxazol-5-yl)-1,2,4-oxadiazol-3-yl)phenyl)acetamide]",,73
0.3,1.9,1805,3.43,"CN(C)C(=O)CCNC(=O)C(O)c1ccc(-c2noc(-c3onc(-c4ccccc4)c3C(F)(F)F)n2)cc1 (single isomer, unassigned) [Example 74, 3-(2-Hydroxy-2-(4-(5-(3-phenyl-4-(trifluoromethyl)isoxazol-5-yl)-1,2,4-oxadiazol-3-yl)phenyl)acetamido)-N,N-dimethylpropanamide]",,84
2,4.7,2795,13.1,"Cc1nnc(CNC(=O)C(O)c2ccc(-c3noc(-c4onc(-c5ccccc5)c4C(F)(F)F)n3)cc2)o1 (single isomer, unassigned) [Example 10, 2-Hydroxy-N-((5-methyl-1,3,4-oxadiazol-2-yl)methyl)-2-(4-(5-(3-phenyl-4-(trifluoromethyl)isoxazol-5-yl)-1,2,4-oxadiazol-3-yl)phenyl)acetamide]",,
2.6,1.5,10707,16.1,"CNC(=O)[C@H](C)NC(=O)C(O)c1ccc(-c2noc(-c3onc(-c4ccccc4)c3C(F)(F)F)n2)cc1 (mixture of isomers) [Example 32, (R/S)-2-(2-Hydroxy-2-(4-(5-(3-phenyl-4-(trifluoromethyl)isoxazol-5-yl)-1,2,4-oxadiazol-3-yl)phenyl)acetamido)-N-methyl(S)propanamide]",,
